# Earlier results in patent US6468469B2, “Reuse determination for high level disinfectant” (Metrex Research Corporation, priority 2000, dated 2002).
# System: M. tuberculosis
# Conditions: alone at a concentration of up to 7.5%
compound,measurement,value
OO [hydrogen peroxide],kill of M. tuberculosis,does not kill
